For one assay, the target named is T1, Human FXIa (Homo sapiens, UniProt P03951).
T1 construct: purchased HTI, Essex Junction, USA
The assay is described as follows: FXIa enzymatic chromogenic assay. In kind it is biochemical. The following applies: 1 mM. The procedure: Enzymatic assay. […] Selected compounds were also screened against other serine proteases to evaluate their selectivity profiles.
Once the compounds were synthesized and characterized, enzymatic assays were performed to evaluate the inhibitory activity of the resulting compounds against FXIa and other serine proteases. […] IC50 values for the compounds were determined using equation: Q= V/(1+([I]/IC50)^n) Q denotes the assay readout, V denotes the uninhibited velocity of the enzyme, [I] denotes the inhibitor concentration, n denotes the slope and IC50 is the inhibitor concentration at V/2.
[S] denotes the substrate concentration.

The next assay has as its target T2, FXIa CD (Homo sapiens, UniProt P03951, C500S/K455A/S452A/T493A).
T2 construct: purification of the catalytic domain (residues 370–607) was carried out as described by Jin et al; made in house
Kind of assay: Ligand detected 1D NMR fragment screen. The following applies: compounds screened at 100 μM, 5 μM FXIa CD. Format: binding. The procedure: Ligand detected 1D NMR. Compounds were screened at 100 μM in mixtures of six. Weakly binding fragments were identified from intensity changes through measurements on three samples viz. […] The signal from a compound binding with low affinity to FXIa CD decreased upon addition of protein and regained upon addition of a high affinity reference compound. Comparison with reference spectra of individual compounds enabled identification of the binding fragment in a mixture. […] As a positive control, the S1 binding ligand para-methyl-benzamidine (pMeBza), compound 3, was used, and in Fig. 3 the doublet at 7.66 ppm is shown.
NMR samples were prepared in aqueous buffer containing 50 mM deuterated TRIS, pH 7.4, 3 mM NaN3, and 10% D2O. FXIa CD stock solution was buffer exchanged and concentrated to approximately 100 μM (2.7 mg/mL) (UV absorption ε280 = 60390 cm^-1) using 10 kDa cut-off Millipore filter centrifugation tubes. Control experiments with pMeBza and compound 2 were done on all protein preparations (Fig. 3). […]
NMR data were collected at 20 °C on a Bruker Avance III 600 MHz NMR spectrometer equipped with a cryo probe head. 1D ^1H T 1ρ NMR spectra were recorded with 256 scans, 3.2 s interscan delay, 180 ms spin lock time and 64 kHz spin lock field. […]

Another assay deals with FXIa. Also on record: method as in PMID 17597608. The following applies: irreversible inhibition; cited from earlier work.
The subject of the next assay is rat models. Set-up: method as in PMID 17597608. Conditions: cited from earlier work.

The term IC50 denotes the concentration that gives 50% inhibition.

T2 sequence (P03951 388-625 S452A/K455A/T493A/C500S): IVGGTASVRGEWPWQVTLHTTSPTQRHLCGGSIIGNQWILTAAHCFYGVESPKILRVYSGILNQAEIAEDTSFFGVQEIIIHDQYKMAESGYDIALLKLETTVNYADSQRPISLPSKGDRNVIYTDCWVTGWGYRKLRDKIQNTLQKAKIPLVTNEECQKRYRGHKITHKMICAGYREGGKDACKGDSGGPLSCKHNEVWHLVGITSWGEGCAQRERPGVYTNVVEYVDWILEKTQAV
T1 sequence (P03951 388-625): as the sequence (P03951 388-625 S452A/K455A/T493A/C500S) above, with A65S, A68K, A106T, S113C counted along it
T1 sequence (P03951 19-387): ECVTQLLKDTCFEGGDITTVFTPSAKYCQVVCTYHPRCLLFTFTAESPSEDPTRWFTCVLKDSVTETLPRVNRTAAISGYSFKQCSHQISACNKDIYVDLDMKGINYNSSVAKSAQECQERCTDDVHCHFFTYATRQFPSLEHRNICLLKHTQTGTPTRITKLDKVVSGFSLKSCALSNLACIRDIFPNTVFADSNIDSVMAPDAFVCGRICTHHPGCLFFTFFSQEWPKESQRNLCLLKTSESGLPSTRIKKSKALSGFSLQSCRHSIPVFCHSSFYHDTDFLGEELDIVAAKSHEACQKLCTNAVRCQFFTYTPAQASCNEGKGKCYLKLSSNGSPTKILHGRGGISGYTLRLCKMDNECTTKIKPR

As for “6-methyl-3,4-dihydro-1H-quinolin-2-one [Compound 17]”, the “FXIa % inh. at 1 mM” value on Human FXIa was found to be 20%. Further, the “hit in NMR screen” value on FXIa CD is recorded as “not identified as a hit in NMR”.

As to `CC(C)(C)NC(=O)N1CCN(C(=O)N2C(=O)[C@H](CCCN=C(N)N)[C@H]2C(=O)O)CC1` [BMS-262084], the IC50 with FXIa was 2.8 nM. Further, the “in vivo antithrombotic efficacy” value in the assay on rat models was “demonstrated in vivo antithrombotic efficacy”.

(Values after paper PMC4309560, “Creating Novel Activated Factor XI Inhibitors through Fragment Based Lead Generation and Structure Aided Drug Design” (PLoS ONE, 2015).)
